According to ChEMBL document CHEMBL5653615 (J Biol Chem, 2013):

Key:
[1] = molecular target: Cyclin-dependent kinase 4/cyclin D1 (Homo sapiens) (UniProt P11802+P24385); assay: Inhibition of human CDK4/cyclin D1 at 18.6 nM by HotSpot assay relative to control; format: protein-complex assay
[2] = molecular target: Activin receptor type-1-like (Homo sapiens) (UniProt P37023); assay: Inhibition of human ALK1 at 18.6 nM by HotSpot assay relative to control
[3] = molecular target: T1, Serine/threonine-protein kinase TAO3 (Homo sapiens) (UniProt Q9H2K8); assay: Inhibition of human JIK at 18.6 nM by HotSpot assay relative to control
T1 sequence (whole entry): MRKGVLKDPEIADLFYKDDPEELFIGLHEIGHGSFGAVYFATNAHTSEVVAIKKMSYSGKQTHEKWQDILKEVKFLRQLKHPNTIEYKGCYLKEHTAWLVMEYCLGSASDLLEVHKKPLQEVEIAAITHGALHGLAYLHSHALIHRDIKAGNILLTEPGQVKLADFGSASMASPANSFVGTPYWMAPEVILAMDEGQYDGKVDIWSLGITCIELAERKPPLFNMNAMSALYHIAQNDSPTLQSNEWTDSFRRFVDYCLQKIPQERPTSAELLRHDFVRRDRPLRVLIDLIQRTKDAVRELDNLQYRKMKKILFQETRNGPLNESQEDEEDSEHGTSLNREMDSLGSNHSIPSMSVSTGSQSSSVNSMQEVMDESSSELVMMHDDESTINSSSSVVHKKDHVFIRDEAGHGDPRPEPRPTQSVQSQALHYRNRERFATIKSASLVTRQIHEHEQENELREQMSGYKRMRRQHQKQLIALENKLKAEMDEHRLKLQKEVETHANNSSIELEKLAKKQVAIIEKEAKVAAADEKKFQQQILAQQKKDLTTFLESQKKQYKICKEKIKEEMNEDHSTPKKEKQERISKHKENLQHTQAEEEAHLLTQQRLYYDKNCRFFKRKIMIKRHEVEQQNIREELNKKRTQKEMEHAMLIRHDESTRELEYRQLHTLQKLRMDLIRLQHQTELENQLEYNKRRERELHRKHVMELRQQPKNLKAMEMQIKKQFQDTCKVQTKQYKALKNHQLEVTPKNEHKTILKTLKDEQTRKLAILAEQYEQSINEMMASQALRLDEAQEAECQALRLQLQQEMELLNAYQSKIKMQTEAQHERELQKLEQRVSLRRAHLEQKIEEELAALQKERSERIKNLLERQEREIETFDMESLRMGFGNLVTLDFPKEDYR

[4] = molecular target: Cyclin-dependent kinase 5/CDK5 activator 1 (Homo sapiens) (UniProt Q00535+Q15078); assay: Inhibition of human CDK5/p35 at 18.6 nM by HotSpot assay relative to control; format: protein-complex assay
[5] = molecular target: RAC-beta serine/threonine-protein kinase (Homo sapiens) (UniProt P31751); assay: Inhibition of human AKT2 at 18.6 nM by HotSpot assay relative to control
[6] = molecular target: T2, Tyrosine-protein kinase ZAP-70 (Homo sapiens) (UniProt P43403); assay: Inhibition of human ZAP70 at 18.6 nM by HotSpot assay relative to control
T2 sequence (whole entry): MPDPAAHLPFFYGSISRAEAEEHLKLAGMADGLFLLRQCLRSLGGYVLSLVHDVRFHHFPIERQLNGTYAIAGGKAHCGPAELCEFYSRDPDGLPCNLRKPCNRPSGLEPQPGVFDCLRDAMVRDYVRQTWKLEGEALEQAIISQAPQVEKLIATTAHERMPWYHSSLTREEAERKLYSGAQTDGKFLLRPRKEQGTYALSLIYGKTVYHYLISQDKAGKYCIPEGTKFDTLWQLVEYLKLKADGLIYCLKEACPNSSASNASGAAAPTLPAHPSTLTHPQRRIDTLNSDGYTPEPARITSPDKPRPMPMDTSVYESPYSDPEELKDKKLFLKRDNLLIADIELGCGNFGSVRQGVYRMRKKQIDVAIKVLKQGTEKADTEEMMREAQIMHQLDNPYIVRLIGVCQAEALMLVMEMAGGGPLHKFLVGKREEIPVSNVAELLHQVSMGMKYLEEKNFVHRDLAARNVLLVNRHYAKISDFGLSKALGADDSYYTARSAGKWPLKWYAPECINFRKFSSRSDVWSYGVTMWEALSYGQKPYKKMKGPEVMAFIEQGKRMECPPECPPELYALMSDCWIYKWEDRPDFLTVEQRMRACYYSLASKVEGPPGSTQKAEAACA

[7] = molecular target: T3, Serine/threonine-protein kinase Nek9 (Homo sapiens) (UniProt Q8TD19); assay: Inhibition of human NEK9 at 1.82 nM by HotSpot assay relative to control
T3 sequence (whole entry): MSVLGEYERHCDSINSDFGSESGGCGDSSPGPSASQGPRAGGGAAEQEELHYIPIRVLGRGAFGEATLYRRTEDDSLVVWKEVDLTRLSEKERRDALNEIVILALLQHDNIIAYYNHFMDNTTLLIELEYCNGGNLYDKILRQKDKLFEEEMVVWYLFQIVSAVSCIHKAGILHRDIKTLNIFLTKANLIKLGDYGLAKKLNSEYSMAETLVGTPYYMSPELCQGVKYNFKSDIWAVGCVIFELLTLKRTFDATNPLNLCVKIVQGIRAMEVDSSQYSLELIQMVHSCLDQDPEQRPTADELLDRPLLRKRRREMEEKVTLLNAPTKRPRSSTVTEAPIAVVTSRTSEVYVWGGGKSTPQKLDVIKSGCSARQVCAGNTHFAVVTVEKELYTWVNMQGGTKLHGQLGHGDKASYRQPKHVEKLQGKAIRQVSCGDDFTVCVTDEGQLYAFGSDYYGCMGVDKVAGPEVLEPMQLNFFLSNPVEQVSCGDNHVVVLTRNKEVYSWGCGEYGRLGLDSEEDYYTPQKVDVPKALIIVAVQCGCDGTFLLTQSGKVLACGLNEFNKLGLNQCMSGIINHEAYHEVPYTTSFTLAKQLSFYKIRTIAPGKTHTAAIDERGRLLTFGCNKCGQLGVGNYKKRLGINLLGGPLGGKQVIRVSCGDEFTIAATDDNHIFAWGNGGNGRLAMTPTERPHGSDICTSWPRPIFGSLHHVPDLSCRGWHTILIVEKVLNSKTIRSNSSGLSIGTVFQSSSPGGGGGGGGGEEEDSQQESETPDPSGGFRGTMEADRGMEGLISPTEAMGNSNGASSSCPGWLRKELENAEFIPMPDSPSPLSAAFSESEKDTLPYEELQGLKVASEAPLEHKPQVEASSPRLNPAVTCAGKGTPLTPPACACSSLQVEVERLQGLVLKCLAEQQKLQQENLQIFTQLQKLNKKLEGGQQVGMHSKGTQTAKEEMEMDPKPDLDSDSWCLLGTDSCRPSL

[8] = molecular target: cAMP-dependent protein kinase (PKA) (Homo sapiens) (UniProt P22694+P17612+P22612); assay: Inhibition of human PKA at 1.82 nM by HotSpot assay relative to control; format: protein assay
[9] = molecular target: Activated CDC42 kinase 1 (Homo sapiens) (UniProt Q07912); assay: Inhibition of human ACK1 at 1.82 nM by HotSpot assay relative to control
Activated CDC42 kinase 1 (Homo sapiens), sequence (Q07912 whole entry, looked up): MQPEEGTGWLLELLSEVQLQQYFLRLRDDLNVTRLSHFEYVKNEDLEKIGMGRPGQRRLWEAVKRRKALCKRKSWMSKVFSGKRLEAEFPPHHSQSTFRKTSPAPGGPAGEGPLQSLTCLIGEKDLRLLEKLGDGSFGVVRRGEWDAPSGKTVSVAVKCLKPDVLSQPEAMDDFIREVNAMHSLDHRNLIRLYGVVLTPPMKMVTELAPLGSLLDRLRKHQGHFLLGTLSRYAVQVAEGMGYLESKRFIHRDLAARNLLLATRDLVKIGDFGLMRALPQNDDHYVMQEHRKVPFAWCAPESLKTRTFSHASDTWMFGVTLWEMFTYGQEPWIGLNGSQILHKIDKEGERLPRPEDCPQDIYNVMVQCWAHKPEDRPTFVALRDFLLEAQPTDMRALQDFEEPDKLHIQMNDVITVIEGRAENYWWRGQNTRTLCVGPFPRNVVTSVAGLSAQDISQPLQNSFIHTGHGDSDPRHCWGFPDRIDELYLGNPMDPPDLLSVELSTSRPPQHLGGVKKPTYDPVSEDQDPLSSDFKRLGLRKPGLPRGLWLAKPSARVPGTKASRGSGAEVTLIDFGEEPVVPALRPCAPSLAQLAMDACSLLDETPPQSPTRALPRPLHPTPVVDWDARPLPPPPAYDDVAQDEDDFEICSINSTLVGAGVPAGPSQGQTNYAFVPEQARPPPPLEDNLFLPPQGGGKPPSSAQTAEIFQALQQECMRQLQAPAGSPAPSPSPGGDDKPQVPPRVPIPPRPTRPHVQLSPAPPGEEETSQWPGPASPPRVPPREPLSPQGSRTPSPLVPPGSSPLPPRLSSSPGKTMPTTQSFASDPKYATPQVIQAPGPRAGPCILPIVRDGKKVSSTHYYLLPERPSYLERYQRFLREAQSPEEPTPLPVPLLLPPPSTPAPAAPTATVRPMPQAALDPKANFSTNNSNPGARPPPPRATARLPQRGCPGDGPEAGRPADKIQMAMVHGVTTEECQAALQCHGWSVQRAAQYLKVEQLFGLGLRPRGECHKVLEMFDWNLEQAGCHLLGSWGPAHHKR

Cyclin-dependent kinase 5/CDK5 activator 1 (Homo sapiens), sequence (Q00535 whole entry): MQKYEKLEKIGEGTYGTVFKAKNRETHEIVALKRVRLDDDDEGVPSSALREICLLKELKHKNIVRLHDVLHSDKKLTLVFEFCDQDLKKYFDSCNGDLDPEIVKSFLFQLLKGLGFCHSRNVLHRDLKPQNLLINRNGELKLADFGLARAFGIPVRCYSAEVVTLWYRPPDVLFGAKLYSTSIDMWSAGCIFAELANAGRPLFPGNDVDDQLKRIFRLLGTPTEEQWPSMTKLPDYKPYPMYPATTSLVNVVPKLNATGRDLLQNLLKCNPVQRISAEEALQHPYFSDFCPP
Cyclin-dependent kinase 5/CDK5 activator 1 (Homo sapiens), sequence (Q15078 99-307 partner limits assumed): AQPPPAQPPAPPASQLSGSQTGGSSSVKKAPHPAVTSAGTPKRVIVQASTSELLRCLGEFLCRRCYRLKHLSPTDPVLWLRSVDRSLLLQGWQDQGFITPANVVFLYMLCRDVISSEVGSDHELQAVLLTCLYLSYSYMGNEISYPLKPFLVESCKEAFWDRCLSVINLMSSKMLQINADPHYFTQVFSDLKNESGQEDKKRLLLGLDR
Activin receptor type-1-like (Homo sapiens), sequence (P37023 whole entry): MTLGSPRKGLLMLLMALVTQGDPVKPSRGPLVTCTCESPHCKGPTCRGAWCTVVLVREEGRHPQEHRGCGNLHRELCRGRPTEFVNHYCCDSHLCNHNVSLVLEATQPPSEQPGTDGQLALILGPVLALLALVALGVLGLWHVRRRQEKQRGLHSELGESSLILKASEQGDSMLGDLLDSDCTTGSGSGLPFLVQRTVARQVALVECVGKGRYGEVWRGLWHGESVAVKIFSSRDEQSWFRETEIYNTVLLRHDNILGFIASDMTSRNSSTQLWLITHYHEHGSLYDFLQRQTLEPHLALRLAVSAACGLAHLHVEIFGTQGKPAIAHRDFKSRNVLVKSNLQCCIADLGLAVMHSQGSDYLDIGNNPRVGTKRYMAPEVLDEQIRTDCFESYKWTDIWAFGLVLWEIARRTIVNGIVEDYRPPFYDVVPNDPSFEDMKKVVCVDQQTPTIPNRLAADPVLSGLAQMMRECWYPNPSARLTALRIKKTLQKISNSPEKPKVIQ
RAC-beta serine/threonine-protein kinase (Homo sapiens), sequence (P31751 whole entry): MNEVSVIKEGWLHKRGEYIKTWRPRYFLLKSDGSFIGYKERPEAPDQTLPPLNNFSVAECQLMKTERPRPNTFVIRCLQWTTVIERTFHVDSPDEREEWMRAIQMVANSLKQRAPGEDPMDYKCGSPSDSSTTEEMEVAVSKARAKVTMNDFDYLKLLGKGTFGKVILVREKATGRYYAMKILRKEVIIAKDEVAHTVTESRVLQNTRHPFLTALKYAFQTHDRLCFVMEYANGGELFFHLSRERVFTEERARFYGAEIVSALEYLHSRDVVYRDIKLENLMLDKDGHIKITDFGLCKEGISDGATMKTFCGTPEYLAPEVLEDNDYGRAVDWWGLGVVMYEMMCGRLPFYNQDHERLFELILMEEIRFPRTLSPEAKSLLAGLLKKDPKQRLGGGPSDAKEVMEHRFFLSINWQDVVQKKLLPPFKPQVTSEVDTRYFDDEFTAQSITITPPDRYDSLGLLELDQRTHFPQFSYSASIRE

| SMILES | inhibition [1] | inhibition [2] | inhibition [3] | inhibition [4] | inhibition [5] | inhibition [6] | inhibition [7] | inhibition [8] | inhibition [9] |
| --- | --- | --- | --- | --- | --- | --- | --- | --- | --- |
| C[C@]1(O)C[C@@H](c2nc(-c3ccc4ccc(-c5ccccc5)nc4c3)c3c(N)nccn32)C1 | -1.49% | 1.51% | 4.89% | -1.84% | 0.3% | -3.52% | – | – | – |
| C[C@@]1(C(=O)Nc2ccc(F)nc2)CCCN1c1nc(Nc2cc(C3CC3)n[nH]2)c2cccn2n1 | – | – | – | – | – | – | -1.18% | -3.44% | 3.55% |
